From the NIST ThermoML archive (doi:10.1016/j.tca.2013.08.016)
Numbers after ± are expanded uncertainties. Values belong to the molecule of their own block, whether it stands above or below them.

How the values were obtained:
[1] = refractive index (Na D-line) (dimensionless); conditions: 101.33 kPa, Liquid, Standard Abbe refractometry
[2] = refractive index (Na D-line) (dimensionless); φn = volume fraction of the nth substance listed; conditions: 101 kPa, Liquid, Standard Abbe refractometry

- refractive index ([2]; 293.15 K, φ1 = 0.0747): 1.33926 ± 0.0004
- refractive index ([2]; 293.15 K, φ1 = 0.1041): 1.34327 ± 0.0004
- refractive index ([2]; 293.15 K, φ1 = 0.2013): 1.35648 ± 0.00041
- refractive index ([2]; 293.15 K, φ1 = 0.3315): 1.37286 ± 0.00041
- refractive index ([2]; 293.15 K, φ1 = 0.4125): 1.38271 ± 0.00042
- refractive index ([2]; 293.15 K, φ1 = 0.5222): 1.39563 ± 0.00042
- refractive index ([2]; 293.15 K, φ1 = 0.6527): 1.41047 ± 0.00043
- refractive index ([2]; 293.15 K, φ1 = 0.7475): 1.42106 ± 0.00043
- refractive index ([2]; 293.15 K, φ1 = 0.8152): 1.42843 ± 0.00044
- refractive index ([2]; 293.15 K, φ1 = 0.8666): 1.43377 ± 0.00044
- refractive index ([2]; 293.15 K, φ1 = 0.9113): 1.43844 ± 0.00044
- refractive index ([2]; 293.15 K, φ1 = 0.9687): 1.44425 ± 0.00044
- refractive index ([2]; 293.15 K, φ1 = 1): 1.44719 ± 0.00045
- refractive index ([2]; 303.15 K, φ1 = 0.0742): 1.3354 ± 0.0004
- refractive index ([2]; 303.15 K, φ1 = 0.1035): 1.33949 ± 0.0004
- refractive index ([2]; 303.15 K, φ1 = 0.2002): 1.35293 ± 0.00041
- refractive index ([2]; 303.15 K, φ1 = 0.3301): 1.36955 ± 0.00041
- refractive index ([2]; 303.15 K, φ1 = 0.411): 1.37949 ± 0.00041
- refractive index ([2]; 303.15 K, φ1 = 0.5206): 1.39258 ± 0.00042
- refractive index ([2]; 303.15 K, φ1 = 0.6513): 1.40757 ± 0.00043
- refractive index ([2]; 303.15 K, φ1 = 0.7463): 1.41824 ± 0.00043
- refractive index ([2]; 303.15 K, φ1 = 0.8142): 1.42561 ± 0.00044
- refractive index ([2]; 303.15 K, φ1 = 0.8658): 1.43105 ± 0.00044
- refractive index ([2]; 303.15 K, φ1 = 0.9108): 1.43576 ± 0.00044
- refractive index ([2]; 303.15 K, φ1 = 0.9685): 1.4416 ± 0.00044
- refractive index ([2]; 303.15 K, φ1 = 1): 1.44454 ± 0.00045
- refractive index ([2]; 313.15 K, φ1 = 0.0737): 1.33144 ± 0.0004
- refractive index ([2]; 313.15 K, φ1 = 0.1028): 1.33587 ± 0.0004
- refractive index ([2]; 313.15 K, φ1 = 0.1991): 1.34941 ± 0.00041
- refractive index ([2]; 313.15 K, φ1 = 0.3286): 1.36646 ± 0.00041
- refractive index ([2]; 313.15 K, φ1 = 0.4096): 1.3765 ± 0.00041
- refractive index ([2]; 313.15 K, φ1 = 0.5189): 1.38958 ± 0.00042
- refractive index ([2]; 313.15 K, φ1 = 0.6498): 1.40471 ± 0.00043
- refractive index ([2]; 313.15 K, φ1 = 0.745): 1.41542 ± 0.00043
- refractive index ([2]; 313.15 K, φ1 = 0.8132): 1.42273 ± 0.00044
- refractive index ([2]; 313.15 K, φ1 = 0.865): 1.42832 ± 0.00044
- refractive index ([2]; 313.15 K, φ1 = 0.9103): 1.433 ± 0.00044
- refractive index ([2]; 313.15 K, φ1 = 0.9683): 1.43897 ± 0.00044
- refractive index ([2]; 313.15 K, φ1 = 1): 1.4419 ± 0.00045
- refractive index ([2]; 323.15 K, φ1 = 0.0732): 1.32837 ± 0.0004
- refractive index ([2]; 323.15 K, φ1 = 0.1022): 1.33278 ± 0.0004
- refractive index ([2]; 323.15 K, φ1 = 0.1981): 1.3469 ± 0.00041
- refractive index ([2]; 323.15 K, φ1 = 0.3271): 1.3641 ± 0.00041
- refractive index ([2]; 323.15 K, φ1 = 0.408): 1.37436 ± 0.00041
- refractive index ([2]; 323.15 K, φ1 = 0.5172): 1.38733 ± 0.00042
- refractive index ([2]; 323.15 K, φ1 = 0.6482): 1.40238 ± 0.00043
- refractive index ([2]; 323.15 K, φ1 = 0.7438): 1.41283 ± 0.00043
- refractive index ([2]; 323.15 K, φ1 = 0.8122): 1.42002 ± 0.00044
- refractive index ([2]; 323.15 K, φ1 = 0.8642): 1.42546 ± 0.00044
- refractive index ([2]; 323.15 K, φ1 = 0.9097): 1.43029 ± 0.00044
- refractive index ([2]; 323.15 K, φ1 = 0.9681): 1.43614 ± 0.00044
- refractive index ([2]; 323.15 K, φ1 = 1): 1.43924 ± 0.00045
SMILES: CCCC[n+]1ccccc1.F[B-](F)(F)F [1-butylpyridinium tetrafluoroborate] + CO

- refractive index ([2]; 293.15 K, φ2 = 0): 1.36144 ± 0.00041
- refractive index ([2]; 303.15 K, φ2 = 0): 1.35702 ± 0.00041
- refractive index ([2]; 313.15 K, φ2 = 0): 1.3527 ± 0.00041
- refractive index ([2]; 323.15 K, φ2 = 0): 1.34837 ± 0.00041
SMILES: CCO [ethanol] + CCCC[n+]1cccc(C)c1.F[B-](F)(F)F

- refractive index ([2]; 293.15 K, φ2 = 0): 1.32843 ± 0.0004
- refractive index ([2]; 303.15 K, φ2 = 0): 1.32433 ± 0.0004
- refractive index ([2]; 313.15 K, φ2 = 0): 1.32015 ± 0.0004
- refractive index ([2]; 323.15 K, φ2 = 0): 1.3167 ± 0.0004
SMILES: CO [methanol] + CCCC[n+]1ccccc1.F[B-](F)(F)F

- refractive index ([2]; 303.15 K, φ1 = 0.0806): 1.36595 ± 0.00042
- refractive index ([2]; 303.15 K, φ1 = 0.1412): 1.37218 ± 0.00042
- refractive index ([2]; 303.15 K, φ1 = 0.2622): 1.3839 ± 0.00042
- refractive index ([2]; 303.15 K, φ1 = 0.3554): 1.39236 ± 0.00042
- refractive index ([2]; 303.15 K, φ1 = 0.4323): 1.39905 ± 0.00042
- refractive index ([2]; 303.15 K, φ1 = 0.561): 1.40993 ± 0.00043
- refractive index ([2]; 303.15 K, φ1 = 0.6685): 1.41861 ± 0.00043
- refractive index ([2]; 303.15 K, φ1 = 0.7512): 1.42527 ± 0.00044
- refractive index ([2]; 303.15 K, φ1 = 0.8213): 1.43076 ± 0.00044
- refractive index ([2]; 303.15 K, φ1 = 0.8742): 1.43497 ± 0.00044
- refractive index ([2]; 303.15 K, φ1 = 0.9217): 1.43861 ± 0.00044
- refractive index ([2]; 303.15 K, φ1 = 0.9612): 1.44158 ± 0.00045
- refractive index ([2]; 303.15 K, φ1 = 1): 1.44454 ± 0.00045
- refractive index ([2]; 313.15 K, φ1 = 0.0802): 1.36207 ± 0.00042
- refractive index ([2]; 313.15 K, φ1 = 0.1405): 1.36844 ± 0.00042
- refractive index ([2]; 313.15 K, φ1 = 0.2611): 1.38045 ± 0.00042
- refractive index ([2]; 313.15 K, φ1 = 0.3541): 1.389 ± 0.00042
- refractive index ([2]; 313.15 K, φ1 = 0.4308): 1.39575 ± 0.00042
- refractive index ([2]; 313.15 K, φ1 = 0.5595): 1.40676 ± 0.00043
- refractive index ([2]; 313.15 K, φ1 = 0.6672): 1.4156 ± 0.00043
- refractive index ([2]; 313.15 K, φ1 = 0.7501): 1.42236 ± 0.00044
- refractive index ([2]; 313.15 K, φ1 = 0.8205): 1.42796 ± 0.00044
- refractive index ([2]; 313.15 K, φ1 = 0.8736): 1.43225 ± 0.00044
- refractive index ([2]; 313.15 K, φ1 = 0.9213): 1.43596 ± 0.00044
- refractive index ([2]; 313.15 K, φ1 = 0.961): 1.43898 ± 0.00045
- refractive index ([2]; 313.15 K, φ1 = 1): 1.4419 ± 0.00045
- refractive index ([2]; 323.15 K, φ1 = 0.0798): 1.35794 ± 0.00042
- refractive index ([2]; 323.15 K, φ1 = 0.1398): 1.3646 ± 0.00042
- refractive index ([2]; 323.15 K, φ1 = 0.26): 1.37704 ± 0.00042
- refractive index ([2]; 323.15 K, φ1 = 0.3528): 1.38573 ± 0.00042
- refractive index ([2]; 323.15 K, φ1 = 0.4294): 1.39254 ± 0.00042
- refractive index ([2]; 323.15 K, φ1 = 0.5581): 1.40354 ± 0.00043
- refractive index ([2]; 323.15 K, φ1 = 0.6659): 1.41255 ± 0.00043
- refractive index ([2]; 323.15 K, φ1 = 0.749): 1.41938 ± 0.00044
- refractive index ([2]; 323.15 K, φ1 = 0.8196): 1.42508 ± 0.00044
- refractive index ([2]; 323.15 K, φ1 = 0.8729): 1.42947 ± 0.00044
- refractive index ([2]; 323.15 K, φ1 = 0.9209): 1.43328 ± 0.00044
- refractive index ([2]; 323.15 K, φ1 = 0.9607): 1.43633 ± 0.00045
- refractive index ([2]; 323.15 K, φ1 = 1): 1.43924 ± 0.00045
SMILES: CCCC[n+]1ccccc1.F[B-](F)(F)F [1-butylpyridinium tetrafluoroborate] + CCO

- refractive index ([2]; 303.15 K, φ2 = 0): 1.35702 ± 0.00041
- refractive index ([2]; 313.15 K, φ2 = 0): 1.3527 ± 0.00041
- refractive index ([2]; 323.15 K, φ2 = 0): 1.34837 ± 0.00041
SMILES: CCO [ethanol] + CCCC[n+]1ccccc1.F[B-](F)(F)F

The remaining lines, values behind:

SMILES: CCCC[n+]1ccc(C)cc1.F[B-](F)(F)F [1-butyl-4-methylpyridinium tetrafluoroborate]
- refractive index ([1]; 293.15 K): 1.45386 ± 0.00045
- refractive index ([1]; 303.15 K): 1.45114 ± 0.00045
- refractive index ([1]; 313.15 K): 1.44841 ± 0.00045
- refractive index ([1]; 323.15 K): 1.44571 ± 0.00045

SMILES: CO [methanol] + CCCC[n+]1ccc(C)cc1.F[B-](F)(F)F
- refractive index ([2]; 293.15 K, φ2 = 0): 1.32843 ± 0.0004
- refractive index ([2]; 303.15 K, φ2 = 0): 1.32433 ± 0.0004
- refractive index ([2]; 313.15 K, φ2 = 0): 1.32015 ± 0.0004
- refractive index ([2]; 323.15 K, φ2 = 0): 1.3167 ± 0.0004

SMILES: CCCC[n+]1cccc(C)c1.F[B-](F)(F)F [1-butyl-3-methylpyridinium tetrafluoroborate]
- refractive index ([1]; 293.15 K): 1.45248 ± 0.00045
- refractive index ([1]; 303.15 K): 1.44976 ± 0.00045
- refractive index ([1]; 313.15 K): 1.44706 ± 0.00045
- refractive index ([1]; 323.15 K): 1.44425 ± 0.00045

SMILES: CCO [ethanol] + CCCC[n+]1ccc(C)cc1.F[B-](F)(F)F
- refractive index ([2]; 293.15 K, φ2 = 0): 1.36144 ± 0.00041
- refractive index ([2]; 303.15 K, φ2 = 0): 1.35702 ± 0.00041
- refractive index ([2]; 313.15 K, φ2 = 0): 1.3527 ± 0.00041
- refractive index ([2]; 323.15 K, φ2 = 0): 1.34837 ± 0.00041

SMILES: CCCC[n+]1ccccc1.F[B-](F)(F)F [1-butylpyridinium tetrafluoroborate]
- refractive index ([1]; 293.15 K): 1.44719 ± 0.00045
- refractive index ([1]; 303.15 K): 1.44454 ± 0.00045
- refractive index ([1]; 313.15 K): 1.4419 ± 0.00045
- refractive index ([1]; 323.15 K): 1.43924 ± 0.00045
